Consider four molecules from patent US20260000781A1, “FC CONJUGATES INCLUDING AN INHIBITOR OF CD73 AND USES THEREOF” (Cidara Therapeutics, Inc., priority 2022, published 2026).

Test [1] has as its system adenosine production by human PBMCs. Nature of the test: PBMC activation assay, AMP conversion by CellTiter-Glo. Conditions: 30 μM AMP, 72 h. The format is cell-based. The protocol:
Human PBMCs (StemCell Technologies cat no. 70025) prepared in ImmunoCult™—XF T cell Expansion medium (StemCell Technologies cat no. 10981) were seeded at 1×10^5 cells per well (100 μL of 1×10^6 cells/mL) in the presence or absence of T cell activator anti-CD3/CD28/CD2 (StemCell Technologies cat no. 10970) in 96 well round bottom plates (Corning cat no. 3788). Ten-fold serial dilutions of each test article was prepared in medium (ranging from 4,000 nM-0.4 nM), resulting in final concentrations ranging from 1,000 nM-0.1 nM. 50 μL of test article was added to the cells, followed by 50 μL of adenosine 5′ monophosphate (AMP; MilliporeSigma cat no. A1752) for a final concentration of 30 μM. Plates were incubated at 37° C. with 5% CO2 for 72 h. After 72 h the cells were centrifuged for 5 min at 300×g at 4° C. and the supernatant was reserved for analysis of AMP conversion using CellTiter-Glo (Promega cat no. G7571).
25 μL of reserved supernatant was transferred to a white 96-well plate (Corning cat no. 3917) and combined with 25 μL of a 1 μM adenosine 5′ triphosphate (ATP; MilliporeSigma cat no. A7699) solution. 50 μL of CellTiter-Glo reagent was added, and the plate incubated for 10 min at room temperature. Luminescence was measured using an EnSpire plate reader (PerkinElmer). […]
For orientation: Cellular ATP, detected with luciferase, serves as a proxy for viable cell number.

The target of the next test is T1, CD73 (Homo sapiens, UniProt P21589).
T1 sequence (P21589 27-549): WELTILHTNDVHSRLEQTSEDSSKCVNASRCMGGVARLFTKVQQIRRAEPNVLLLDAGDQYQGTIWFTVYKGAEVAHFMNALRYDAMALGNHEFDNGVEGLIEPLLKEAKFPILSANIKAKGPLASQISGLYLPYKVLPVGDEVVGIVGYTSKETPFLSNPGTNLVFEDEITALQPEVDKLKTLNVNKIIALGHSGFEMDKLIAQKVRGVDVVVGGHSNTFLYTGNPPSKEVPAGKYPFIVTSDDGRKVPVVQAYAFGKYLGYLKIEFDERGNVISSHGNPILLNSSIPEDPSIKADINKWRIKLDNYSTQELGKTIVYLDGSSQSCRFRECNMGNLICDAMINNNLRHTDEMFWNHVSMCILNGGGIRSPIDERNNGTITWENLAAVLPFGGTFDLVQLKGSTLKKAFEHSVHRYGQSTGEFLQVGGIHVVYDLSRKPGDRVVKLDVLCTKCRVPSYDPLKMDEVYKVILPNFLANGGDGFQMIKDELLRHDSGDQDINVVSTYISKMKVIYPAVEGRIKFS
Put plainly: Cell-free CD73 enzyme inhibition assay. Type of test: biochemical. The conditions noted are these: recombinant human CD73 0.1 ng/μL, AMP 100 μM, 25 min at 37° C. (FIG. 1A, 1B). As to the method:
The cell-free CD73 enzyme inhibition assay was performed in a 96-well plate format using the CD73 Inhibitor Screening Assay Kit in accordance with the manufacturer's instructions (cat no. 72055, BPS Bioscience). […] Colorimetric detection reagent was then added (100 μL/well) and the free phosphate from the CD73 reaction was measured by reading the absorbance at 630 nm using the EnSpire multimode plate reader (PerkinElmer). Wells without test inhibitor (CD73 positive control) were included on each plate. Blank wells without test inhibitor and CD73 were subtracted from all wells. Percent CD73 inhibition versus inhibitor concentration was plotted using GraphPad Prism Version 8 and IC50's calculated using nonlinear regression analysis (Sigmoidal, 4 PL).
The cell-free CD73 enzyme inhibition assay was performed in a 96-well plate format using the CD73 Inhibitor Screening Assay Kit in accordance with the manufacturer's instructions (BPS Bioscience cat no. 72055). […] Colorimetric detection reagent was then added (100 μL/well) and the free phosphate from the CD73 reaction was measured by reading the absorbance at 630 nm using the EnSpire multimode plate reader (PerkinElmer). Wells without test inhibitor (CD73 positive control) were included on each plate. Blank wells without test inhibitor and CD73 were subtracted from all wells. Percent CD73 inhibition (y-axis) versus log10 inhibitor concentration (x-axis) was plotted using GraphPad Prism Version 8 and IC50's calculated using nonlinear regression analysis (Sigmoidal, 4 PL).

The target in test [2] is T2, CD73 expressed on the MDA-MB-231 cell surface (Homo sapiens, UniProt P21589).
T2 construct: host or cells: MDA-MB-231
T2 sequence (P21589 27-549): T1 sequence (P21589 27-549)
Nature of the test: Cell-based CD73 enzyme inhibition assay on MDA-MB-231 cells. The conditions noted are these: AMP 400 μM, 3 h (FIG. 3). As to the method: The cell-based CD73 enzyme inhibition assay was performed essentially as described above for the cell-free assay, with the following modifications.
(§1) The cell-based CD73 enzyme inhibition assay was performed essentially as described above for the cell-free assay, with the following modifications. MDA-MB-231 human breast adenocarcinoma cells (ATCC CRM-HTB-26) were seeded at 2×10^4 cells/well/100 μL into 96-well tissue culture-treated plates (Corning Costar cat no. 3596) and incubated overnight at 37° C., 5% CO2. […] The 96-well plate was then centrifuged at 125×g for 5 min at room temperature and ATP (25 μL/well, 100 μM final) was combined with supernatant (25 μL/well) in a white opaque 96-well plate (Corning Costar cat no. 3912).
as §1, with “3912). […] Percent CD73 inhibition (y-axis) versus log10 inhibitor concentration (x-axis) were plotted using GraphPad Prism Version 8 and IC50's calculated using nonlinear regression analysis (Sigmoidal, 4 PL).” for “3912).”

In a further test the target is T3, CD73 on MDA-MB-231 cells (Homo sapiens, UniProt P21589).
T3 construct: host or cells: MDA-MB-231
T3 sequence (P21589 27-549): T1 sequence (P21589 27-549)
Put plainly: CD73 internalization assay (Fab-ZAP). The format is cell-based.

pEC50, pIC50: −log10 of the molar value.

One may read the pEC50 as the negative decadic logarithm of the EC50, by convention in mol/L. A low value points to a large EC50. A word on the pIC50: it is −log10 of the IC50, conventionally taken in molar units.

Procedure for CD73 on MDA-MB-231 cells: Cells were plated into white tissue culture-treated 96 well plates (Corning cat no. 3917) at 5×10^3 to 1×10^4 cells/well in 100 μL in RPMI (Gibco cat no. 11875093)+10% FBS (Gibco cat no. 16140071) and incubated overnight at 37° C. with 5% CO2. Serial dilutions of test article (TA) from 0.00002 nM-200 nM (2× final concentration) were pre-incubated with 100 nM Fab-ZAP reagent (2× final concentration) for 30 min at room temperature. Cells were washed once with 150 μL/well 1×PBS (Gibco cat no. 10010023), followed by the addition of 50 μL/well of media and 50 μL/well TA/Fab-ZAP mix. Cells were then incubated for 72 h at 37° C. with 5% CO2 and viability was determined after 72 h via the CellTiter-Glo assay (Promega cat no. G7570) following the manufacturer's instructions. Cell viability RLU versus log10 nM drug concentration was plotted using GraphPad Prism. The % CD73 internalization was calculated using the following formula: % CD73 internalization=[1−RLU (sample)/RLU (untreated cells)]×100%. The EC50's for each TA was calculated using the 4 PL non-linear regression analysis in GraphPad Prism software.
Cells were plated into white tissue culture-treated 96 well plates (Corning cat no. 3917) at 2×10^3 cells/well in 100 μL in RPMI (Gibco cat no. 11875093)+10% FBS (Gibco cat no. 16140071) and incubated overnight at 37° C. with 5% CO2. Serial dilutions of test article (TA) from 0.06 nM-20 nM (2× final concentration) were pre-incubated with 100 nM Fab-ZAP reagent (2× final concentration) for 30 min at room temperature. […] Cells were then incubated for 96 h at 37° C. with 5% CO2 and viability was determined after 96 h via the CellTiter-Glo assay (Promega cat no. G7570) following the manufacturer's instructions. […] The % CD73 internalization was calculated using the following formula: % CD73 internalization=[1−RLU (sample)/RLU (untreated cells)]×100%. The EC50's for each TA was calculated using the 4 PL non-linear regression analysis in GraphPad Prism software.

Molecule `C[C@H](Nc1cc(Cl)nc2c1cnn2[C@@H]1O[C@H](COP(=O)(O)CP(=O)(O)O)[C@@H](O)[C@H]1O)c1ccccc1F` [AB680] showed a negative-log EC50 (pEC50) in test [1] (Homo sapiens, PBMC) of 8.30.

As for `COC[C@](CO)(OC[C@H]1O[C@@H](n2ncc3c(NC4CCCC4)nc(Cl)nc32)[C@H](O)[C@@H]1O)P(=O)(O)O` [OP5244], the pEC50 in test [1] is 9.00.

Consider `COC[C@](CO)(OC[C@H]1O[C@@H](n2ncc3c(NC4CCCC4)nc(Cl)nc32)[C@H](O)[C@@H]1O)P(=O)(O)O` [OP-5244], for which the negative-log IC50 (pIC50) on CD73 is 8.89; in test [2], 9.51. Further, the “Cell internalization EC50 (nM)” value at CD73 on MDA-MB-231 cells (72 h (Table 11)) is listed as “did not induce receptor internalization”; on CD73 on MDA-MB-231 cells (96 h (Table 23)), “No activity”.

Turning to `O=P(O)(O)COC[C@H]1O[C@@H](n2ncc3c(N4CC5(CCc6ccccc65)C4)nc(Cl)nc32)[C@H](O)[C@@H]1O` [SHR170008], the values for the negative logarithm of the IC50 (pIC50) (on CD73; in test [2]) were 8.39 and 8.31, respectively. In addition, at CD73 on MDA-MB-231 cells (72 h (Table 11)), the “Cell internalization EC50 (nM)” value is given as “did not induce receptor internalization”.
